Experimental data taken from publication PMC7497679, “Structure-based design, synthesis, and evaluation of the biological activity of novel phosphoroorganic small molecule IAP antagonists” (Investigational New Drugs, 2020).
Read-outs that look alike come from different tables or passages of the source.

What was measured:
A549 = assay: Antiproliferative activity, SRB method; format: cell-based, human; conditions: Homo sapiens, A549, 10 µM, 72 h, read-out: mean proliferation inhibition at highest concentration used, A549
Text: (§1) MDA-MB-231 (human breast cancer), MCF10A (human, nontumorigenic mammary gland epithelial cells), A549 (human nonsmall-cell lung cancer), UMUC-3 (human bladder cancer) and LoVo (human colon cancer) cell lines were obtained from the American Type Culture Collection (ATCC; Rockville, Maryland, USA). The MCF-7 cell line (human breast cancer) was obtained from the European Collection of Cell Cultures (ECACC; Salisbury, UK). All cell lines were maintained at the Hirszfeld Institute of Immunology and Experimental Therapy (HIIET), Wrocław, Poland. MDA-MB-231 cells were cultured in RPMI1640 medium (Thermo Fisher Scientific, Warszawa, Poland) supplemented with 2 mM L-glutamine, 1 mM sodium pyruvate, and 10% fetal bovine serum (all from Sigma-Aldrich, Poznań, Poland). The MCF10A cell line was cultured in Ham’s F12 medium with glutamine (Corning) supplemented with 5% (v/v) fetal bovine serum (FBS), 5% (v/v) horse serum, 10 µg/mL insulin, 0.05 µg/mL cholera toxin, 0.5 µg/mL hydrocortisone, and 20 ng/mL hEGF (all from Sigma-Aldrich). A549 and LoVo cells were cultured in a 1:1 (v/v) mixture of RPMI1640 and Opti-MEM (both from HIIET) supplemented with 5% (v/v) FBS and 2 mM L-glutamine. The UMUC-3 cell line was cultured in high glucose DMEM (Thermo Fisher Scientific) supplemented with 10% FBS and 2 mM Lglutamine. The MCF-7 line was cultured in Eagle’s minimal essential medium (EMEM; Thermo Fisher Scientific) supplemented with 10% (v/v) FBS, 2 mM L-glutamine, 1% (v/v) nonessential amino acids, and 8 µg/mL insulin (all from Sigma-Aldrich). All culture media contained 100 µg/mL streptomycin (Sigma-Aldrich) and 100 U/mL penicillin (Polfa Tarchomin SA, Warszawa, Poland). The cells were grown at 37 °C in a humid atmosphere saturated with 5% CO2.
(§2) Antiproliferative activity was assessed in six cell lines utilizing the sulforhodamine B (SRB) method. Briefly, cells were seeded in 96-well plates (Sarstedt, Warszawa, Poland) at a density of 5 × 10^3 cells/well, and after overnight incubation, the cells were exposed to compounds at various concentrations. After 72 h, the plates were fixed with 50% (v/v) TCA (all from Sigma-Aldrich), washed with tap water, and the precipitated proteins were labeled with 0.1% (w/v) SRB solution in 1% (v/v) AcOH. Next, the plates were washed with 1% (v/v) AcOH, and the remaining SRB dye was solubilized with 10 mM unbuffered TRIS solution. The absorbance was measured using a Biotek Hybrid H4 reader (BioTek Instruments, VT, USA) at 540 nm. Crude results were analyzed using a previously described method, and the results are expressed as the IC50 (compound concentration that reduced cell growth by 50%) compared to the vehicletreated control (0.1% (v/v) DMSO). The samples were analyzed in triplicate, and each experiment was repeated at least three times.

MCF-7 = assay: Antiproliferative activity, SRB method; format: cell-based, human; conditions: Homo sapiens, MCF7, 10 µM, 72 h, read-out: mean proliferation inhibition at highest concentration used, MCF-7
Text: as §1, §2

UMUC-3 = assay: Antiproliferative activity, SRB method; format: cell-based, human; conditions: Homo sapiens, UMUC3, 10 µM, 72 h, read-out: mean proliferation inhibition at highest concentration used, UMUC-3
Text: as §1, §2

MCF-10A = assay: Antiproliferative activity, SRB method; format: cell-based, human; conditions: Homo sapiens, MCF-10A, 10 µM, 72 h, read-out: mean proliferation inhibition at highest concentration used, MCF-10A
Text: as §1, §2

MDA-MB-231 = assay: Antiproliferative activity, SRB method; format: cell-based, human; conditions: Homo sapiens, MDA-MB-231, 72 h, read-out: IC50 ± SD (n = 3) MDA-MB-231
Text: as §1, §2

LoVo = assay: Antiproliferative activity, SRB method; format: cell-based, human; conditions: Homo sapiens, LoVo, 10 µM, 72 h, read-out: mean proliferation inhibition at highest concentration used, LoVo
Text: as §1, §2

XIAP BIR3 domain = molecular target: T1, XIAP BIR3 domain (Homo sapiens, UniProt P98170); assay: Fluorescence polarization inhibition (competition) assay; format: binding; conditions: for inhibition at 50 µM: 0.5 h, antagonist 50 µM, inhibition of protein-probe interaction; for Ki / EC50: XIAP BIR3 50 nM, fluorescent probe 4 2 nM
T1 construct: fluorescent probe 4 and the XIAP BIR3 domain (Sino Biological, Beijing, China) were used for all measurements; purchased Sino Biological, Beijing, China
T1 sequence (P98170 252-356 limits assumed): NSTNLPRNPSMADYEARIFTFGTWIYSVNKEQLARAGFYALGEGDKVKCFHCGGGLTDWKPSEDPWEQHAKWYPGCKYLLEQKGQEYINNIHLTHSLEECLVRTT
Summary of the method: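 BIR3 protein (50 nM) preincubated 15 min at r.t. with compound (50 μM to 0.0537 nM), then fluorescent probe 4 (2 nM) added and polarization read 30 min later (ex 484, em 528 nm). Phosphate buffer pH 7.5 with γ-globulin, NaN3, 1.4% DMSO; duplicates. EC50 from variable-slope fit, converted to Ki.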

Compound	inhibition at 10 µM (A549) [%]	inhibition at 10 µM (MCF-7) [%]	inhibition at 10 µM (UMUC-3) [%]	inhibition at 10 µM (MCF-10A) [%]	IC50 (MDA-MB-231) [nM]	inhibition at 10 µM (LoVo) [%]	inhibition at 50 µM (XIAP BIR3 domain) [%]	Ki (XIAP BIR3 domain) [nM]	EC50 (XIAP BIR3 domain; read-out: EC50) [nM]	EC50 (XIAP BIR3 domain; read-out: log EC50 (converted)) [nM]
CN[C@@H](C)C(=O)N[C@H](C(=O)N1CCC[C@H]1C(=O)NC(Cc1ccccc1)P(=O)(Oc1ccccc1)Oc1ccccc1)C(C)C (stereo partly drawn) [Compound 41, diphenyl (1-((S)-1-((S)-3-methyl-2-((S)-2-(methylamino)propanamido)butanoyl)pyrrolidine-2-carboxamido)-2-phenylethyl)phosphonate]	10	20	5	2	2580 ± 320	11	100	50	130	131
CN[C@@H](C)C(=O)N[C@H](C(=O)N1CCC[C@H]1C(=O)NC(Cc1ccccc1)P(=O)(Oc1ccccc1)Oc1ccccc1)C1CCCCC1 (stereo partly drawn) [Compound 42, diphenyl (1-((S)-1-((S)-2-cyclohexyl-2-((S)-2-(methylamino)propanamido)acetyl)pyrrolidine-2-carboxamido)-2-phenylethyl)phosphonate]	23	16	6	2	2460 ± 380	12	100	350	740	738
